Where two headings read alike, the source gives them in different places.
How the values were obtained:
CYP2B6 = CYP2B6 (Homo sapiens, UniProt P20813); test: biochemical; set-up: CYP off-target inhibition panel
From the text: These examples have been of interest as tool compounds in commercial development (indicated by patent numbers in Figure 3). […] Initially, [compound left out] was utilized as substrate in this reaction owing to its improved solubility over cholesterol, enabling better run to run reproducibility ([Mast et al., 2003]).

CYP1A2 = CYP1A2 (Homo sapiens, UniProt P05177); test: biochemical; set-up: CYP off-target inhibition panel
Human 5-HT3 = target: T1, Human 5-HT3 (Homo sapiens, UniProt P46098); test: biochemical; set-up: CEREP off-target binding panel, per cent inhibition at 10 uM, n = 2
T1 construct: gene HTR3A

Human CXCR2 = Human CXCR2 (Homo sapiens, UniProt P25025); test: biochemical; set-up: CEREP off-target binding panel, per cent inhibition at 10 uM, n = 2
Human AR = Human AR (Homo sapiens, UniProt P10275); test: biochemical; set-up: CEREP off-target binding panel, per cent inhibition at 10 uM, n = 2
Human A1 = target: T2, Human A1 (Homo sapiens, UniProt P30542); test: biochemical; set-up: CEREP off-target binding panel, per cent inhibition at 10 uM, n = 2
T2 construct: gene ADORA1

Human EP4 = target: T3, Human EP4 (Homo sapiens, UniProt P35408); test: biochemical; set-up: CEREP off-target binding panel, per cent inhibition at 10 uM, n = 2
T3 construct: gene PTGER4

Human NK2 = target: T4, Human NK2 (Homo sapiens, UniProt P21452); test: biochemical; set-up: CEREP off-target binding panel, per cent inhibition at 10 uM, n = 2
T4 construct: gene TACR2

Human 5-HT1B = target: T5, Human 5-HT1B (Homo sapiens, UniProt P28222); test: biochemical; set-up: CEREP off-target binding panel, per cent inhibition at 10 uM, n = 2
T5 construct: gene HTR1B

Human M1 = target: T6, Human M1 (Homo sapiens, UniProt P11229); test: biochemical; set-up: CEREP off-target binding panel, per cent inhibition at 10 uM, n = 2
T6 construct: gene CHRM1

Human A3 = target: T7, Human A3 (Homo sapiens, UniProt P0DMS8); test: biochemical; set-up: CEREP off-target binding panel, per cent inhibition at 10 uM, n = 2
T7 construct: gene ADORA3

Human H1 = target: T8, Human H1 (Homo sapiens, UniProt P35367); test: biochemical; set-up: CEREP off-target binding panel, per cent inhibition at 10 uM, n = 2
T8 construct: gene HRH1

Human NK3 = target: T9, Human NK3 (Homo sapiens, UniProt P29371); test: biochemical; set-up: CEREP off-target binding panel, per cent inhibition at 10 uM, n = 2
T9 construct: gene TACR3

Human β2 = target: T10, Human β2 (Homo sapiens, UniProt P07550); test: biochemical; set-up: CEREP off-target binding panel, per cent inhibition at 10 uM, n = 2
T10 construct: gene ADRB2

Human 5-HT1A = target: T11, Human 5-HT1A (Homo sapiens, UniProt P08908); test: biochemical; set-up: CEREP off-target binding panel, per cent inhibition at 10 uM, n = 2
T11 construct: gene HTR1A

Human PXR = target: T12, Human PXR (Homo sapiens, UniProt O75469); test: in vitro; set-up: CEREP off-target binding panel, per cent inhibition at 10 uM, n = 2
T12 construct: gene NR1I2

Human V1a = target: T13, Human V1a (Homo sapiens, UniProt P37288); test: biochemical; set-up: CEREP off-target binding panel, per cent inhibition at 10 uM, n = 2
T13 construct: gene AVPR1A

Human 5-HT2B = target: T14, Human 5-HT2B (Homo sapiens, UniProt P41595); test: biochemical; set-up: CEREP off-target binding panel, per cent inhibition at 10 uM, n = 2
T14 construct: gene HTR2B

Human H3 = target: T15, Human H3 (Homo sapiens, UniProt Q9Y5N1); test: biochemical; set-up: CEREP off-target binding panel, per cent inhibition at 10 uM, n = 2
T15 construct: gene HRH3

Human MC4 = target: T16, Human MC4 (Homo sapiens, UniProt P32245); test: biochemical; set-up: CEREP off-target binding panel, per cent inhibition at 10 uM, n = 2
T16 construct: gene MC4R

MT1 = target: T17, MT1 (Homo sapiens, UniProt P48039); test: biochemical; set-up: CEREP radioligand binding panel, percent inhibition of specific binding
T17 construct: gene MTNR1A

CCK1 = target: T18, CCK1 (Homo sapiens, UniProt P32238); test: biochemical; set-up: CEREP radioligand binding panel, percent inhibition of specific binding
T18 construct: gene CCKAR

GAL2 = target: T19, GAL2 (Homo sapiens, UniProt O43603); test: biochemical; set-up: CEREP radioligand binding panel, percent inhibition of specific binding
T19 construct: gene GALR2

CYP2C8 = CYP2C8 (Homo sapiens, UniProt P10632); test: biochemical; set-up: CYP off-target inhibition panel
Human B2 = target: T20, Human B2 (Homo sapiens, UniProt P30411); test: biochemical; set-up: CEREP off-target binding panel, per cent inhibition at 10 uM, n = 2
T20 construct: gene BDKRB2

CYP2C9 = CYP2C9 (Homo sapiens, UniProt P11712); test: biochemical; set-up: CYP off-target inhibition panel

T15 sequence (Q9Y5N1 whole entry): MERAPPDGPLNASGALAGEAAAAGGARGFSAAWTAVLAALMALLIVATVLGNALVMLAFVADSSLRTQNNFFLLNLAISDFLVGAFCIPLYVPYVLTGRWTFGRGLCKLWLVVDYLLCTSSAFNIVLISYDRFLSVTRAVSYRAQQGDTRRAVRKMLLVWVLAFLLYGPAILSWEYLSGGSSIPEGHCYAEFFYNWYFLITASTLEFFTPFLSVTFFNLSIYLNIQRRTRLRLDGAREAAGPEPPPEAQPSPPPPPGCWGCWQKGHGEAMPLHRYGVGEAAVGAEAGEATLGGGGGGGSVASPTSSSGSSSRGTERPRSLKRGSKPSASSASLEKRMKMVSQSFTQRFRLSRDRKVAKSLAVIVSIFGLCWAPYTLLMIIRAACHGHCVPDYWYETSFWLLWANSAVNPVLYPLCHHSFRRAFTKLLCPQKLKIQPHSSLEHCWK
Sequence of CYP2C8 (P10632 whole entry): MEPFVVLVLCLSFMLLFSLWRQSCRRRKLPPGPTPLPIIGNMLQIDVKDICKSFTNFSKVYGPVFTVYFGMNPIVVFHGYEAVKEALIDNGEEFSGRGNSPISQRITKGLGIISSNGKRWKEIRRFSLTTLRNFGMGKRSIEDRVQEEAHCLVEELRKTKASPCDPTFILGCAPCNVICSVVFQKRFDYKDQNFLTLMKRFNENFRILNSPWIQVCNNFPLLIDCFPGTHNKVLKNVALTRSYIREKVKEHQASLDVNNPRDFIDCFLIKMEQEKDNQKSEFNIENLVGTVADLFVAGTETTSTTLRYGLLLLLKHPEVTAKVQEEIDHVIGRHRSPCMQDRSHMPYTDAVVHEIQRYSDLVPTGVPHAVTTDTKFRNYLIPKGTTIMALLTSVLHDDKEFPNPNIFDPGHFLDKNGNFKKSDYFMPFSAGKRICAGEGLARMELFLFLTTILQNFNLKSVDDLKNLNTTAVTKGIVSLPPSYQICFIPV
T19 sequence (O43603 whole entry): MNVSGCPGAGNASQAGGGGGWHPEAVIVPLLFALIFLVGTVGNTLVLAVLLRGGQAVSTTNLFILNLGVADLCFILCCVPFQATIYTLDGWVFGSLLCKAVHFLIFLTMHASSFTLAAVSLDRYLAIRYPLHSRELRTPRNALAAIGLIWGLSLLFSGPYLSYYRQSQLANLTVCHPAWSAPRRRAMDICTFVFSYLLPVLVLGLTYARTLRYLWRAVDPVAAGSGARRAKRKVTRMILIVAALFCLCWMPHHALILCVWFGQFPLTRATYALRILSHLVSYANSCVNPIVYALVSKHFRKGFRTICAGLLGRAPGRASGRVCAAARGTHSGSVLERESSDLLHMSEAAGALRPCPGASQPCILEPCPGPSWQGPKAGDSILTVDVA
T20 sequence (P30411 whole entry): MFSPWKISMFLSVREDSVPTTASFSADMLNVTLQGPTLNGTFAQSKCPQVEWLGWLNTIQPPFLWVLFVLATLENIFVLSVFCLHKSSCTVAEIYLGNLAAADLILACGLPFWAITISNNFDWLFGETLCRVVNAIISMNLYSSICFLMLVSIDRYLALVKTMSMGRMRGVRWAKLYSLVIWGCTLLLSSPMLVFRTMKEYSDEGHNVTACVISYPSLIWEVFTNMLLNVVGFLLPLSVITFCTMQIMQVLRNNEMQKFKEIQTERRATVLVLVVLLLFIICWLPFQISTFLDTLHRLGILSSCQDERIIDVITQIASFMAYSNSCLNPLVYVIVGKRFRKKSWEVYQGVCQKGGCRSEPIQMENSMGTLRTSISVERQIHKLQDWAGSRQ
T9 sequence (P29371 whole entry): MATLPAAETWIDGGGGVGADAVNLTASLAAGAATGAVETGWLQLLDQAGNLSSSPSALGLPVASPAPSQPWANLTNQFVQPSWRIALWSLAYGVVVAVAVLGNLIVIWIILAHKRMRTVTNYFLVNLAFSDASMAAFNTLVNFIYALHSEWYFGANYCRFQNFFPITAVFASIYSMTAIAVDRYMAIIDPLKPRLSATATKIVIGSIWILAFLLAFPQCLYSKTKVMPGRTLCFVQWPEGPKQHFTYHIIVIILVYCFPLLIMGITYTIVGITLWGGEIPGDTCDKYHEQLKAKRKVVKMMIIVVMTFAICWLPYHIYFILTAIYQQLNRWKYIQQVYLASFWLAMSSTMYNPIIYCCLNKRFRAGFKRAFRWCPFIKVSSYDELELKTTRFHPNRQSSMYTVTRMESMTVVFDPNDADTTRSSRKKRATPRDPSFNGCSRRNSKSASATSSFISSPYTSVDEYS
T11 sequence (P08908 whole entry): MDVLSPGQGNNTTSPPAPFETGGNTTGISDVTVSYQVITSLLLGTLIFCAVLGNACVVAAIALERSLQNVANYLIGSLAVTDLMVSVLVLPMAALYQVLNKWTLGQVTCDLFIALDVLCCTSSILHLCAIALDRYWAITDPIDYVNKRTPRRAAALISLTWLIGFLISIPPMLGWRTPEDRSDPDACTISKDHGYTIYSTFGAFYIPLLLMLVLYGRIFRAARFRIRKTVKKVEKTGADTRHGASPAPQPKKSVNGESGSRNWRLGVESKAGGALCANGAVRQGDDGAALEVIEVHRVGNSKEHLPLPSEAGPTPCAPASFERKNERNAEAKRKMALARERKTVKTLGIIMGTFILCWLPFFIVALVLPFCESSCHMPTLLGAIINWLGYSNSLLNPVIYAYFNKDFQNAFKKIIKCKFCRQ
T17 sequence (P48039 whole entry): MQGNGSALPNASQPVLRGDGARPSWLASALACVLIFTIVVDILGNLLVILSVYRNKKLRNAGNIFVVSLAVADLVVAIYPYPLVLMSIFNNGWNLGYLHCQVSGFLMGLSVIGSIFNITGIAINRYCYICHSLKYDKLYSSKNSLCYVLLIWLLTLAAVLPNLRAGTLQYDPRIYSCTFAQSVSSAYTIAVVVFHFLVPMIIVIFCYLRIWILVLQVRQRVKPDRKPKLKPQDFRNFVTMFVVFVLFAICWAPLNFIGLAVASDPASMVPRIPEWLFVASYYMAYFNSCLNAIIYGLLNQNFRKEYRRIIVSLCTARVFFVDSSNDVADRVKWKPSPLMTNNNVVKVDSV
T12 sequence (O75469 whole entry): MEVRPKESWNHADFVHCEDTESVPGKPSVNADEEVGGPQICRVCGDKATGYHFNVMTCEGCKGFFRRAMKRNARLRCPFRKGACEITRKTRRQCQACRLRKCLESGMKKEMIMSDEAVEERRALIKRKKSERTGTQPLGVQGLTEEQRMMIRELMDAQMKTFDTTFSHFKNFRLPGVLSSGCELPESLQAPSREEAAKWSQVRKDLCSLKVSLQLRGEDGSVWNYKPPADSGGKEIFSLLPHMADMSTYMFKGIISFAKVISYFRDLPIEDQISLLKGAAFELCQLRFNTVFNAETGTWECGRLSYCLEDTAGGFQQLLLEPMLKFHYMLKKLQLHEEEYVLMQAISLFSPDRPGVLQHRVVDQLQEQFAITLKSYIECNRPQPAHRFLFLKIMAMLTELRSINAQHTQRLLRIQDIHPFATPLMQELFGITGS
Sequence of CYP1A2 (P05177 whole entry): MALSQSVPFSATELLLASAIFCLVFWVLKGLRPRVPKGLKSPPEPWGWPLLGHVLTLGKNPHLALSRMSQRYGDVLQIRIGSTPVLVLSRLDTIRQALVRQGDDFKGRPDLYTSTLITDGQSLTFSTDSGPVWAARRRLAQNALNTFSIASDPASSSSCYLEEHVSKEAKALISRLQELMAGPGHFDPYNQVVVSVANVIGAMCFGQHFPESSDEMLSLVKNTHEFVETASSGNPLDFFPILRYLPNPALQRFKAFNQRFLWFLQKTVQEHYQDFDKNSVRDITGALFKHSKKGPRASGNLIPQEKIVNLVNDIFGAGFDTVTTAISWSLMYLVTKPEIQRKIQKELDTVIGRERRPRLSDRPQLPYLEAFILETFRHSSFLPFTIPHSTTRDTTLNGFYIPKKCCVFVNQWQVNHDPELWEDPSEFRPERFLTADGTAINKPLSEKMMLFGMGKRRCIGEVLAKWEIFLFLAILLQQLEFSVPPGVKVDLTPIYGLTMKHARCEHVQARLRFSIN
Sequence of Human AR (P10275 whole entry): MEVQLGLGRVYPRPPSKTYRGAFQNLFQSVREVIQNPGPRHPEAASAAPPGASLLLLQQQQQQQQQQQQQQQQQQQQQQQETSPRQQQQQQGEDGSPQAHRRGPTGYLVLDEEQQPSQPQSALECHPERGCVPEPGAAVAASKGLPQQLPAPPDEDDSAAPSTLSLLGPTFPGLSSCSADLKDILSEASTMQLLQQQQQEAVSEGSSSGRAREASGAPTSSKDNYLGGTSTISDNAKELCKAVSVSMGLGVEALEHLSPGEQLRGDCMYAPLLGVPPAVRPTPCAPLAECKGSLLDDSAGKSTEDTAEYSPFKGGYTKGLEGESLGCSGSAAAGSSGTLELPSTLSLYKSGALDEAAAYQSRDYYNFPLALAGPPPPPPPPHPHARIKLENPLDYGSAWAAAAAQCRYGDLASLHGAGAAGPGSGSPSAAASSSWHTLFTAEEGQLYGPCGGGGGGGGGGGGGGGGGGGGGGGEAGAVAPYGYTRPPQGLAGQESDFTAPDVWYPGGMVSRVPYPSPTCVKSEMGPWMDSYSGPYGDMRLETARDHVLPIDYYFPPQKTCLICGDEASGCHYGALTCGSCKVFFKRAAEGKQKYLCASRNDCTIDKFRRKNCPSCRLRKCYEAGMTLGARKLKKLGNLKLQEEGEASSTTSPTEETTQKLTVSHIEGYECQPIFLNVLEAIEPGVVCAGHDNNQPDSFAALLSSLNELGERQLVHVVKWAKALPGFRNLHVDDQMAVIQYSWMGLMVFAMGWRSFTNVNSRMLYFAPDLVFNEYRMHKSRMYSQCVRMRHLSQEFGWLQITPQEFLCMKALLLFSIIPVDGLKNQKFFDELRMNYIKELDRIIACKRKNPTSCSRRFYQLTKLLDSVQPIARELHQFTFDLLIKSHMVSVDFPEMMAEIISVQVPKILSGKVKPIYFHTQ

SMILES: O=C(c1cnc2c(-c3cnco3)cc(C(F)(F)F)cn12)N1C2CCC1COC2 [compound 1, (3-oxa-8-azabicyclo[3.2.1]octan-8-yl)(8-(oxazol-5-yl)-6-(trifluoromethyl)imidazo[1,2-a]pyridin-3-yl)methanone]
- IC50 (CYP2B6): > 50 µM
- IC50 (CYP1A2): 6.29 µM
- inhibition at 10 µM (Human 5-HT3): 11%
- inhibition at 10 µM (Human CXCR2): -11.3%
- inhibition at 10 µM (Human AR): -2%
- inhibition at 10 µM (Human A1): 32%
- inhibition at 10 µM (Human EP4): -22.4%
- inhibition at 10 µM (Human NK2): -7.9%
- inhibition at 10 µM (Human 5-HT1B): -8.4%
- inhibition at 10 µM (Human M1): 3.3%
- inhibition at 10 µM (Human A3): 23.3%
- inhibition at 10 µM (Human H1): -12.9%
- inhibition at 10 µM (Human NK3): 4.1%
- inhibition at 10 µM (Human β2): -8.1%
- inhibition at 10 µM (Human 5-HT1A): 12.4%
- inhibition at 10 µM (Human PXR): 4.8%
- inhibition at 10 µM (Human V1a): -7.4%
- inhibition at 10 µM (Human 5-HT2B): -2.8%
- inhibition at 10 µM (Human H3): -3.3%
- inhibition at 10 µM (Human MC4): 4.5%
- inhibition at 10 µM (MT1): 1.7%
- inhibition at 10 µM (CCK1): 7.1%
- inhibition at 10 µM (GAL2): -7.2%
- IC50 (CYP2C8): > 50 µM
- inhibition at 10 µM (Human B2): 6.9%
- IC50 (CYP2C9): > 50 µM

SMILES: O=C(c1cccnc1-c1ccncn1)N1CCC(O)(Cc2ccc(F)cc2)CC1 [compound 2, (4-(4-fluorobenzyl)-4-hydroxypiperidin-1-yl)(2-(pyrimidin-4-yl)pyridin-3-yl)methanone]
- IC50 (CYP2B6; read-out: compound 2): > 50 µM
- IC50 (CYP1A2; read-out: compound 2): > 50 µM
- inhibition at 10 µM (Human 5-HT3): 0.8%
- inhibition at 10 µM (Human CXCR2): -1.5%
- inhibition at 10 µM (Human AR): 3.1%
- inhibition at 10 µM (Human A1): 12.2%
- inhibition at 10 µM (Human EP4): 1.8%
- inhibition at 10 µM (Human NK2): -1.4%
- inhibition at 10 µM (Human 5-HT1B): -13.3%
- inhibition at 10 µM (Human M1): -8.6%
- inhibition at 10 µM (Human A3): 5.4%
- inhibition at 10 µM (Human H1): -13.3%
- inhibition at 10 µM (Human NK3): 1.1%
- inhibition at 10 µM (Human β2): -2%
- inhibition at 10 µM (Human 5-HT1A): 10.8%
- inhibition at 10 µM (Human PXR): 8.8%
- inhibition at 10 µM (Human V1a): 2.8%
- inhibition at 10 µM (Human 5-HT2B): -2.4%
- inhibition at 10 µM (Human H3): -14.7%
- inhibition at 10 µM (Human MC4): 9.8%
- inhibition at 10 µM (MT1): 8.3%
- inhibition at 10 µM (CCK1): -4.7%
- inhibition at 10 µM (GAL2): 0%
- IC50 (CYP2C8; read-out: compound 2): > 50 µM
- inhibition at 10 µM (Human B2): 8.4%
- IC50 (CYP2C9; read-out: compound 2): > 50 µM

Source: paper PMC7658267, “Effects of CYP46A1 Inhibition on Long-Term-Depression in Hippocampal Slices ex vivo and 24S-Hydroxycholesterol Levels in Mice in vivo” (Frontiers in Molecular Neuroscience, 2020)
